From the NIST ThermoML archive (doi:10.1021/je300938w)

Experiments:
[1] = refractive index (Na D-line) (dimensionless); wn = mass fraction of the nth substance listed; settings: 101 kPa, Liquid, Standard Abbe refractometry
[2] = wn = mass fraction of the nth substance listed; settings: 101 kPa, Liquid; for viscosity: Concentric cylinders viscometry; for mass density: Vibrating tube method

CC(O)CN(CC(C)O)CC(C)O (stereo not given) [triisopropanolamine] + O
Settings | mass density, [2] [kg/m3] | refractive index, [1] | viscosity, [2] [mPa·s]
298.15 K, w1 = 0.05 | 1000.88 | 1.34069 | 1.083
298.15 K, w1 = 0.1 | 1004.3 | 1.34815 | 1.36
298.15 K, w1 = 0.15 | 1007.92 | 1.35565 | 1.71
298.15 K, w1 = 0.2 | 1011.66 | 1.36317 | 2.173
298.15 K, w1 = 0.25 | 1015.04 | 1.37063 | 2.857
303.15 K, w1 = 0.05 | 999.387 | 1.34001 | 0.9842
303.15 K, w1 = 0.1 | 1002.67 | 1.34737 | 1.198
303.15 K, w1 = 0.15 | 1006.1 | 1.35487 | 1.486
303.15 K, w1 = 0.2 | 1009.61 | 1.36227 | 1.859
303.15 K, w1 = 0.25 | 1012.73 | 1.36979 | 2.396
308.15 K, w1 = 0.05 | 997.679 | 1.33922 | 0.8883
308.15 K, w1 = 0.1 | 1000.83 | 1.34656 | 1.068
308.15 K, w1 = 0.15 | 1004.08 | 1.35393 | 1.309
308.15 K, w1 = 0.2 | 1007.37 | 1.36133 | 1.612
308.15 K, w1 = 0.25 | 1010.26 | 1.36869 | 2.051
313.15 K, w1 = 0.05 | 995.768 | 1.33853 | 0.8034
313.15 K, w1 = 0.1 | 998.785 | 1.34572 | 0.9574
313.15 K, w1 = 0.15 | 1001.88 | 1.35309 | 1.159
313.15 K, w1 = 0.2 | 1004.97 | 1.36039 | 1.418
313.15 K, w1 = 0.25 | 1007.64 | 1.36764 | 1.774
318.15 K, w1 = 0.05 | 993.671 | 1.33769 | 0.7315
318.15 K, w1 = 0.1 | 996.561 | 1.34484 | 0.8658
318.15 K, w1 = 0.15 | 999.498 | 1.35209 | 1.038
318.15 K, w1 = 0.2 | 1002.41 | 1.35933 | 1.257
318.15 K, w1 = 0.25 | 1004.88 | 1.36653 | 1.553
323.15 K, w1 = 0.05 | 991.401 | 1.3368 | 0.6696
323.15 K, w1 = 0.1 | 994.168 | 1.34387 | 0.7874
323.15 K, w1 = 0.15 | 996.957 | 1.35104 | 0.9361
323.15 K, w1 = 0.2 | 999.698 | 1.35818 | 1.125
323.15 K, w1 = 0.25 | 1002 | 1.36532 | 1.373
328.15 K, w1 = 0.05 | 988.96 | 1.33565 | 0.6164
328.15 K, w1 = 0.1 | 991.613 | 1.34287 | 0.7208
328.15 K, w1 = 0.15 | 994.263 | 1.34999 | 0.8494
328.15 K, w1 = 0.2 | 996.847 | 1.35718 | 1.013
328.15 K, w1 = 0.25 | 998.98 | 1.36417 | 1.224
333.15 K, w1 = 0.05 | 986.362 | 1.33481 | 0.5719
333.15 K, w1 = 0.1 | 988.905 | 1.34176 | 0.6624
333.15 K, w1 = 0.15 | 991.422 | 1.34883 | 0.7754
333.15 K, w1 = 0.2 | 993.857 | 1.35587 | 0.9186
333.15 K, w1 = 0.25 | 995.844 | 1.36291 | 1.104
338.15 K, w1 = 0.05 | 983.585 | 1.3337 | 0.535
338.15 K, w1 = 0.1 | 985.961 | 1.34063 | 0.6134
338.15 K, w1 = 0.15 | 988.426 | 1.34762 | 0.7114
338.15 K, w1 = 0.2 | 990.739 | 1.35461 | 0.8381
338.15 K, w1 = 0.25 | 992.589 | 1.36154 | 0.9991
343.15 K, w1 = 0.05 | 980.297 | 1.33265 | 0.5064
343.15 K, w1 = 0.1 | 982.83 | 1.33943 | 0.57
343.15 K, w1 = 0.15 | 985.312 | 1.34641 | 0.6596
343.15 K, w1 = 0.2 | 987.395 | 1.35319 | 0.7694
343.15 K, w1 = 0.25 | 989.222 | 1.36012 | 0.9113
